# Results reported in ChEMBL document CHEMBL3885881, “DrugMatrix”.
# Organism: Rattus norvegicus
# Test: DrugMatrix - Regimen: Daily Repeat
# Type: toxicity, organism-based, Sprague-Dawley
# Design: regimen Daily Repeat, gender Male, age 6-8 weeks
# Conditions: in vivo, iv, vehicle 100 % SALINE; for ABSOLUTE BASOPHIL / ABSOLUTE EOSINOPHIL / ABSOLUTE LYMPHOCYTE / ABSOLUTE MONOCYTE / ABSOLUTE SEGMENTED NEUTROPHIL / BASOPHIL / EOSINOPHIL / ERYTHROCYTE COUNT / HEMATOCRIT / HEMOGLOBIN / LEUKOCYTE COUNT / LYMPHOCYTE / MEAN CORPUSCULAR HEMOGLOBIN / MEAN CORPUSCULAR HEMOGLOBIN CONCENTRATION / MEAN CORPUSCULAR VOLUME / MONOCYTE / NEUTROPHIL / NUCLEATED RED BLOOD CELLS / PLATELET COUNT: tissue Blood; for ALANINE AMINOTRANSFERASE / ALBUMIN / ALKALINE PHOSPHATASE / ASPARTATE AMINOTRANSFERASE / BLOOD UREA NITROGEN / CARBON DIOXIDE / CHLORIDE / CHOLESTEROL / CREATINE PHOSPHOKINASE / CREATININE / GLUCOSE / LACTATE DEHYDROGENASE / LIPASE / PHOSPHORUS / POTASSIUM / SODIUM / TOTAL BILIRUBIN / TOTAL PROTEIN / URIC ACID: tissue Plasma
# [1] = 0 mg/kg, 72 h, dose level Control, time 3 day
# [2] = 0 mg/kg, 120 h, dose level Control, time 5 day
# [3] = 2 mg/kg, 72 h, dose level Low, time 3 day
smiles,measurement,setting,value
Cc1ccc(N(CC2=NCCN2)c2cccc(O)c2)cc1 [PHENTOLAMINE],ABSOLUTE BASOPHIL,[1],0 CELLS/uL
same,ABSOLUTE EOSINOPHIL,[1],53.17 CELLS/uL
same,ABSOLUTE LYMPHOCYTE,[1],13731.5 CELLS/uL
same,ABSOLUTE MONOCYTE,[1],186.17 CELLS/uL
same,ABSOLUTE SEGMENTED NEUTROPHIL,[1],1645.83 CELLS/uL
same,BASOPHIL,[1],0%
same,EOSINOPHIL,[1],0.33%
same,ERYTHROCYTE COUNT,[1],5.57 x10E6/uL
same,HEMATOCRIT,[1],36.33%
same,HEMOGLOBIN,[1],13.47 G/DL
same,LEUKOCYTE COUNT,[1],15.62 x10E3/uL
same,LYMPHOCYTE,[1],88.5%
same,MEAN CORPUSCULAR HEMOGLOBIN,[1],24.22 pg
same,MEAN CORPUSCULAR HEMOGLOBIN CONCENTRATION,[1],37.1 G/DL
same,MEAN CORPUSCULAR VOLUME,[1],65.35 fL
same,MONOCYTE,[1],1.17%
same,NEUTROPHIL,[1],10%
same,NUCLEATED RED BLOOD CELLS,[1],0.17 /100WBC
same,PLATELET COUNT,[1],1295.5 x10E3/uL
same,ALANINE AMINOTRANSFERASE,[1],46.83 u/L
same,ALBUMIN,[1],4.37 G/DL
same,ALKALINE PHOSPHATASE,[1],414.33 u/L
same,ASPARTATE AMINOTRANSFERASE,[1],72.5 u/L
same,BLOOD UREA NITROGEN,[1],17 mg/dL
same,CARBON DIOXIDE,[1],23.5 mmol/L
same,CHLORIDE,[1],102 MEQ/L
same,CHOLESTEROL,[1],80.33 mg/dL
same,CREATINE PHOSPHOKINASE,[1],207.83 u/L
same,CREATININE,[1],0.22 mg/dL
same,GLUCOSE,[1],172.17 mg/dL
same,LACTATE DEHYDROGENASE,[1],131 u/L
same,LIPASE,[1],10.33 u/L
same,PHOSPHORUS,[1],11.75 mg/dL
same,POTASSIUM,[1],6.83 MEQ/L
same,SODIUM,[1],145.28 MEQ/L
same,TOTAL BILIRUBIN,[1],0.22 mg/dL
same,TOTAL PROTEIN,[1],6.22 G/DL
same,URIC ACID,[1],1.9 mg/dL
same,ABSOLUTE BASOPHIL,[2],0 CELLS/uL
same,ABSOLUTE EOSINOPHIL,[2],33 CELLS/uL
same,ABSOLUTE LYMPHOCYTE,[2],12184 CELLS/uL
same,ABSOLUTE MONOCYTE,[2],108 CELLS/uL
same,ABSOLUTE SEGMENTED NEUTROPHIL,[2],958.33 CELLS/uL
same,BASOPHIL,[2],0%
same,EOSINOPHIL,[2],0.17%
same,ERYTHROCYTE COUNT,[2],5.9 x10E6/uL
same,HEMATOCRIT,[2],36.58%
same,HEMOGLOBIN,[2],13.33 G/DL
same,LEUKOCYTE COUNT,[2],13.28 x10E3/uL
same,LYMPHOCYTE,[2],91.17%
same,MEAN CORPUSCULAR HEMOGLOBIN,[2],22.67 pg
same,MEAN CORPUSCULAR HEMOGLOBIN CONCENTRATION,[2],36.47 G/DL
same,MEAN CORPUSCULAR VOLUME,[2],62.13 fL
same,MONOCYTE,[2],0.83%
same,NEUTROPHIL,[2],7.83%
same,NUCLEATED RED BLOOD CELLS,[2],0.33 /100WBC
same,PLATELET COUNT,[2],1475.33 x10E3/uL
same,ALANINE AMINOTRANSFERASE,[2],47 u/L
same,ALBUMIN,[2],4.35 G/DL
same,ALKALINE PHOSPHATASE,[2],368.33 u/L
same,ASPARTATE AMINOTRANSFERASE,[2],90.83 u/L
same,BLOOD UREA NITROGEN,[2],15.5 mg/dL
same,CARBON DIOXIDE,[2],26.5 mmol/L
same,CHLORIDE,[2],103.33 MEQ/L
same,CHOLESTEROL,[2],71.83 mg/dL
same,CREATINE PHOSPHOKINASE,[2],585.33 u/L
same,CREATININE,[2],0.19 mg/dL
same,GLUCOSE,[2],171.17 mg/dL
same,LACTATE DEHYDROGENASE,[2],388.83 u/L
same,LIPASE,[2],10.83 u/L
same,PHOSPHORUS,[2],11.75 mg/dL
same,POTASSIUM,[2],6.21 MEQ/L
same,SODIUM,[2],143.7 MEQ/L
same,TOTAL BILIRUBIN,[2],0.17 mg/dL
same,TOTAL PROTEIN,[2],6.17 G/DL
same,URIC ACID,[2],1.98 mg/dL
same,ABSOLUTE BASOPHIL,[3],0 CELLS/uL
same,ABSOLUTE EOSINOPHIL,[3],44.67 CELLS/uL
same,ABSOLUTE LYMPHOCYTE,[3],11097.67 CELLS/uL
same,ABSOLUTE MONOCYTE,[3],122.33 CELLS/uL
same,ABSOLUTE SEGMENTED NEUTROPHIL,[3],968.67 CELLS/uL
same,BASOPHIL,[3],0%
same,EOSINOPHIL,[3],0.33%
same,ERYTHROCYTE COUNT,[3],5.48 x10E6/uL
same,HEMATOCRIT,[3],35.63%
same,HEMOGLOBIN,[3],13.4 G/DL
same,LEUKOCYTE COUNT,[3],12.23 x10E3/uL
same,LYMPHOCYTE,[3],90.67%
same,MEAN CORPUSCULAR HEMOGLOBIN,[3],24.5 pg
same,MEAN CORPUSCULAR HEMOGLOBIN CONCENTRATION,[3],37.6 G/DL
same,MEAN CORPUSCULAR VOLUME,[3],65.03 fL
same,MONOCYTE,[3],1%
same,NEUTROPHIL,[3],8%
same,NUCLEATED RED BLOOD CELLS,[3],0 /100WBC
same,PLATELET COUNT,[3],1379.67 x10E3/uL
same,ALANINE AMINOTRANSFERASE,[3],31.67 u/L
same,ALBUMIN,[3],4.47 G/DL
same,ALKALINE PHOSPHATASE,[3],406 u/L
same,ASPARTATE AMINOTRANSFERASE,[3],74 u/L
same,BLOOD UREA NITROGEN,[3],18.67 mg/dL
same,CARBON DIOXIDE,[3],19.67 mmol/L
same,CHLORIDE,[3],104.67 MEQ/L
same,CHOLESTEROL,[3],76.67 mg/dL
same,CREATINE PHOSPHOKINASE,[3],368.67 u/L
same,CREATININE,[3],0.22 mg/dL
same,GLUCOSE,[3],166 mg/dL
same,LACTATE DEHYDROGENASE,[3],137.33 u/L
same,LIPASE,[3],10.33 u/L
same,PHOSPHORUS,[3],12.63 mg/dL
same,POTASSIUM,[3],6.72 MEQ/L
same,SODIUM,[3],145.53 MEQ/L
same,TOTAL BILIRUBIN,[3],0.13 mg/dL
same,TOTAL PROTEIN,[3],6.27 G/DL
